Where a name gives a salt, the structure may show the parent alone. Read-outs that look alike come from different tables or passages of the source.
What was measured:
opioid receptor = molecular target: T1, opioid receptor (Mus musculus, UniProt P42866); assay: in vivo; parameters: species or system CF-1 male mice; conditions: sc
T1 construct: Five CF-1 male mice (Charles River, Portage, MI); from tissue; host or cells: living CF-1 male mice (whole animal, endogenous receptor)

[1] = system: peripheral opioid receptors; assay: mouse diarrhea test: precipitated diarrhea in morphine-maintained mice (peripheral opioid activity); format: in vivo
[2] = molecular target: peripheral opioid receptors (Mus musculus, UniProt P42866); assay: as above; format: in vivo; conditions: mouse diarrhea test, morphine-maintained mice, subcutaneous or oral, 30 min observation
mu receptor = molecular target: T2, mu receptor (Rattus norvegicus, UniProt P33535); assay: Naloxone [3H] opioid receptor binding assay (mu receptor); parameters: species or system rat (male Sprague Dawley)
T2 construct: The brain tissue, rat whole brain minus cerebellum for mu was homogenized; from tissue; host or cells: brain minus cerebellum of male Sprague Dawley rats, homogenate fraction

[3] = mouse writhing test, […], s.c. 20 min before acetic acid, read-out: AD50 (the source's name)
[4] = AD50 mouse writhing / ED50 mouse diarrhea, higher = greater relative peripheral antagonism
[5] = 20 min, pH 7.4, 10 nM test compound, [3H]naloxone 0.5 nM, mu receptor, read-out: % displacement at 10 nM
[6] = 20 min, pH 7.4, 100 nM test compound, [3H]naloxone 0.5 nM, mu receptor, read-out: % displacement at 100 nM
[7] = 20 min, pH 7.4, read-out: % displacement at 10 nM
[8] = 20 min, pH 7.4, read-out: % displacement at 100 nM
[9] = […], rat whole brain minus cerebellum, [3H]naloxone 0.5 nM, pH 7.4, 37° C., 20 min, read-out: Ki
[10] = mouse writhing test, dose of antagonist that reduced inhibition of writhing by 1.25 mg/kg morphine sulfate to 50%, s.c. 20 min before acetic acid, read-out: AD50 (the source's name)

peripheral opioid receptors (Mus musculus, UniProt P42866), sequence (P42866 whole entry): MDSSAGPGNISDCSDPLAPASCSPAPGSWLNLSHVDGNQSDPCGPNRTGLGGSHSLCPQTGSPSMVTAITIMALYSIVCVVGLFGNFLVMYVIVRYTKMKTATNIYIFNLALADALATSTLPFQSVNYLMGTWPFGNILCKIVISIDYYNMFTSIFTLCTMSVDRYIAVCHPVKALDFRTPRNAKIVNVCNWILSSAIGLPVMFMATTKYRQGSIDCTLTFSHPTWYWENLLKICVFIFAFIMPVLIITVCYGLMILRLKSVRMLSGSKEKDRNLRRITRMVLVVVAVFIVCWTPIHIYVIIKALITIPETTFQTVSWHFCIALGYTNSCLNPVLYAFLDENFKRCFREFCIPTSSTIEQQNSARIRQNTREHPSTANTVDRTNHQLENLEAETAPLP
T1 sequence (P42866 whole entry): as above
T2 sequence (P33535 whole entry): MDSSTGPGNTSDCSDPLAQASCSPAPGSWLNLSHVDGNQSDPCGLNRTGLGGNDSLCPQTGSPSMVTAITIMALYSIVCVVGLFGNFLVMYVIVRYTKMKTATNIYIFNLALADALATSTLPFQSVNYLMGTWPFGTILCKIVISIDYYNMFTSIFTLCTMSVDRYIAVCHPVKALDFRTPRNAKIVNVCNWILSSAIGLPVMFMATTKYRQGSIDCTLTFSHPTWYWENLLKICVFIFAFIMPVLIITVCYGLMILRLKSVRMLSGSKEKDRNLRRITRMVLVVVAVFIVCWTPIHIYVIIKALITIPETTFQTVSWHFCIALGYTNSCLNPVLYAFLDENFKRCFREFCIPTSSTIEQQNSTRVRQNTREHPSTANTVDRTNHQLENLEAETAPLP

Row | Compound | ED50 (opioid receptor; [3]) | Ratio (ratio of AD50 to ED50) [1, 4] | ED50 ([2]; 0.5 h, read-out: ED50) | inhibition at 0.01 µM (mu receptor; [5]) | inhibition at 0.1 µM (mu receptor; [6]) | ED50 [2] | inhibition at 0.01 µM (mu receptor; [7]) | inhibition at 0.1 µM (mu receptor; [8]) | Ki (mu receptor; [9]) | ED50 (opioid receptor; [10]) | inhibition at 0.01 µM (mu receptor; 20 min, pH 7.4, 10 nM test compound, [3H]naloxone 0.5 nM, […], read-out: % displacement at 10 nM) | ED50 (opioid receptor; mouse, read-out: AD50) | Ratio (ratio of AD50 to ED50) ([1]; mouse, in vivo) | Ki (mu receptor)
1 | CCOC(=O)CCCC(=O)N(CCN1CC[C@@](C)(c2cccc(O)c2)[C@@H](C)C1)C1CCCCC1 (relative stereo) [Example 32, 5-(Cyclohexyl-(2-(trans-4-(3-hydroxyphenyl)-3,4-dimethyl-1-piperidinyl)ethyl)amino)-5-oxopentanoic acid ethyl ester monohydrochloride] | 9.4 mg/kg | 59 | 0.16 mg/kg | 40% | 100% | – | – | – | – | – | – | – | – | –
2 | C[C@H]1CN(CCN(C(=O)CC(N)=O)C2CCCCC2)CC[C@@]1(C)c1cccc(O)c1 (relative stereo) [Example 34, N-Cyclohexyl-N-(2-(trans-4-(3-hydroxyphenyl)-3,4-dimethyl-1-piperidinyl)ethyl)propanediamidehydrochloride monohydrate] | 8.2 mg/kg | 21 | 0.39 mg/kg | 77% | 91% | – | – | – | – | – | – | – | – | –
3 | CNC(=O)CC(=O)N(CCN1CC[C@@](C)(c2cccc(O)c2)[C@@H](C)C1)C1CCCCC1 (relative stereo) [Example 36, N-Methyl-3-oxo-3-((2-(trans-4-(3-hydroxyphenyl)-3,4-dimethyl-1-piperidinyl)ethyl)cyclohexylamino)propanamidemonohydrochloride monohydrate] | 2.9 mg/kg | 8 | – | – | – | 0.39 mg/kg | 85% | 99% | 3.01 nM | – | – | – | – | –
4 | CCOC(=O)CCC(=O)N(CCN1CC[C@@](C)(c2cccc(O)c2)[C@@H](C)C1)C1CCCCC1 (relative stereo) [Example 71] | 3.71 mg/kg | 13 | – | – | – | 0.29 mg/kg | 78% | 96% | 3.85 nM | – | – | – | – | –
5 | CC(C)COC(=O)CCC(=O)N(CCN1CC[C@@](C)(c2cccc(O)c2)[C@@H](C)C1)C1CCCCC1 (relative stereo) [Example 72] | 5.5 mg/kg | 324 | 0.017 mg/kg | 73% | 96% | – | – | – | – | – | – | – | – | –
6 | C[C@H]1CN(CCN(C(=O)CCC(=O)OCC2CCCCC2)C2CCCCC2)CC[C@@]1(C)c1cccc(O)c1 (relative stereo) [Example 73] | 9.2 mg/kg | 54 | 0.17 mg/kg | 46% | 88% | – | – | – | – | – | – | – | – | –
7 | CCOC(=O)CCC(=O)NC(CCN1CC[C@@](C)(c2cccc(O)c2)[C@@H](C)C1)CC(C)C (single isomer, unassigned) [Example 2A, 4-[[1-[2-[4-(3-hydroxyphenyl)-3,4-dimethyl-1-piperidinyl]-ethyl]-3-methylbutyl)amino]-4-oxobutanoic acid ethyl ester] | 8.4 mg/kg | 29 | – | – | – | 0.29 mg/kg | 98% | 100% | 0.64 nM | – | – | – | – | –
8 | CC1CN(C[C@H](CC2CCCCC2)NC(=O)CCCC(=O)O)CCC1(C)c1cccc(O)c1 (single isomer, unassigned; (+)) [Example 16] | > 20 mg/kg | > 166 | – | – | – | 0.12 mg/kg | 97% | 100% | 0.96 nM | – | – | – | – | –
9 | C[C@H]1CN(CCC(NC(=O)C(CCCNC(=N)N[N+](=O)[O-])NC(=O)CCCC(=O)NCc2ccccc2)c2ccccc2)CC[C@@]1(C)c1cccc(O)c1 (single isomer, unassigned; (-)) [Example 8, (-)-N-(1-phenyl-3-(trans-4-(3-hydroxyphenyl)-3,4-dimethyl-1-piperidinyl)propyl)-2-((1,5-dioxo-5-(phenylmethyl)amino)pentyl)amino-5-((imino(nitroamino)methyl)-amino)pentanamide] | – | > 2 | – | – | – | 0.64 mg/kg | 95% | 99% | 0.68 nM | > 1.25 mg/kg | – | – | – | –
10 | CC(C)C(=O)NCCCC(=O)NC(CCCNC(=N)N[N+](=O)[O-])C(=O)NC(CCN1CC[C@@](C)(c2cccc(O)c2)[C@@H](C)C1)c1ccccc1 (single isomer, unassigned; (-)) [Example 9, (-)-N-(1-phenyl-3-(trans-4-(3-hydroxyphenyl)-3,4-dimethyl-1-piperidinyl)propyl)-2-((1-oxo-4-(2-methyl-1-oxopropyl)amino)butyl)amino-5-((imino(nitroamino)-methyl)amino)pentanamide] | – | > 5 | – | – | – | 0.25 mg/kg | – | 100% | 1.33 nM | > 1.25 mg/kg | 92% | – | – | –
11 | C[C@H]1CN(CCC(CC2CCCCC2)NC(=O)CCC(=O)O)CC[C@@]1(C)c1cccc(O)c1 (stereo partly shown) [Example 1, 4-[(3-(4-(3-hydroxyphenyl)-3,4-dimethyl-1-piperidinyl)-1-(cyclohexylmethyl)propyl)amino]-4-oxobutanoic acid monohydrate] | – | – | – | – | – | 0.01 mg/kg | 72% | 94% | – | – | – | > 40 mg/kg | > 4000 | 6.88 nM
12 | CCOC(=O)CCC(=O)NC(CCN1CC[C@@](C)(c2cccc(O)c2)[C@@H](C)C1)CC(C)C (stereo partly shown) [Example 2B, 4-[[1-[2-[4-(3-hydroxyphenyl)-3,4-dimethyl-1-piperidinyl]-ethyl]-3-methylbutyl)amino]-4-oxobutanoic acid ethyl ester] | 10.2 mg/kg | 54 | – | – | – | 0.19 mg/kg | 93% | 99% | 1.2 nM | – | – | – | – | –
13 | CC(C)CC(CCN1CC[C@@](C)(c2cccc(O)c2)[C@@H](C)C1)NC(=O)CCCC(=O)O (stereo partly shown) [Example 4, 5-[[1-(2-methylpropyl)-3-[4-(3-hydroxyphenyl)-3,4-dimethyl-1-piperidinyl]propyl]amino]-5-oxopentanoic acid] | – | – | – | – | – | 0.07 mg/kg | 86% | 94% | – | – | – | 17.5 mg/kg | 250 | 1.41 nM
14 | CCOC(=O)CC(=O)N[C@H](Cc1ccccc1)CN1CC[C@@](C)(c2cccc(O)c2)[C@@H](C)C1 [Example 10, Ethyl trans-(3R,4R,R)-3-((2-(4-(3-hydroxyphenyl)-3,4-dimethyl-1-piperidinyl)-1-(D-(phenylmethyl)ethyl)amino))-3-oxopropionate hydrochloride] | 9.3 mg/kg | 78 | – | – | – | 0.12 mg/kg | 61% | 94% | 1.46 nM | – | – | – | – | –
15 | C[C@H]1CN(C[C@@H](Cc2ccccc2)NC(=O)CC(=O)O)CC[C@@]1(C)c1cccc(O)c1 [Example 11, Trans-3-((2-(4-(3-hydroxyphenyl)-3,4-dimethyl-1-piperidinyl)-1-(D-(phenylmethyl)ethyl)amino))-3-oxopropionic acid] | 12.4 mg/kg | 41 | 0.3 mg/kg | 36% | 80% | – | – | – | – | – | – | – | – | –
16 | CCOC(=O)CC(=O)N[C@H](Cc1ccccc1)CN1CC[C@](C)(c2cccc(O)c2)[C@H](C)C1 [Example 12, Ethyl trans-3-((2-(4-(3-hydroxyphenyl)-3,4-dimethyl-1-piperidinyl)-1-(D-(phenylmethyl)ethyl)amino))-3-oxopropionate hydrochloride] | 20 mg/kg | – | – | – | – | 0.20 mg/kg | 43% | 87% | – | – | – | – | 100 | –
17 | C[C@@H]1CN(C[C@@H](Cc2ccccc2)NC(=O)CC(=O)O)CC[C@]1(C)c1cccc(O)c1 [Example 13, Trans-3-((2-(4-(3-hydroxyphenyl)-3,4-dimethyl-1-piperidinyl)-1-(D-(phenylmethyl)ethyl)amino))-3-oxopropionic acid monohydrate] | > 40 mg/kg | > 138 | 0.29 mg/kg | 24% | 72% | – | – | – | – | – | – | – | – | –
18 | CCNC(=O)N[C@H](Cc1ccccc1)CN1CC[C@](C)(c2cccc(O)c2)[C@H](C)C1 [Example 17, N-Ethyl-N'-2-(D-(1-(trans-4-(3-hydroxyphenyl)-3,4-dimethyl-1-piperidinyl)-3-phenyl)propyl)urea hydrochloride monohydrate] | > 40 mg/kg | > 12 | 3.28 mg/kg | 38% | 82% | – | – | – | – | – | – | – | – | –
19 | C[C@H]1CN(CC(Cc2ccccc2)NC(=O)CCCNC(=O)OC(C)(C)C)CC[C@@]1(C)c1cccc(O)c1 (stereo partly drawn) [Example 18, Trans-(4-((1-((4-(3-hydroxyphenyl)-3,4-dimethyl-1-piperidinyl)methyl)-2-phenylethyl)amino)-4-oxobutyl) carbamic acid, 1,1 dimethylethyl ester monohydrochloride] | 1.31 mg/kg | 4.5 | – | – | – | 0.30 mg/kg | 86% | 100% | 0.63 nM | – | – | – | – | –
